Tests used:
Test in all cases: Live cell target engagement (NanoBRET) in HEK293 cells
Type in all cases: cell-based
[1] = target: AKT2 (Homo sapiens (Human), UniProt P31751); details: HEK293, 2 hours at 37° C.
[2] = target: AKT1 E17K (Homo sapiens (Human), UniProt P31749, E17K); details: for IC50: HEK293, 2 hours at 37° C.
[3] = target: AKT1 WT (Homo sapiens (Human), UniProt P31749); details: HEK293, 2 hours at 37° C.
AKT1 WT, sequence (P31749 whole entry): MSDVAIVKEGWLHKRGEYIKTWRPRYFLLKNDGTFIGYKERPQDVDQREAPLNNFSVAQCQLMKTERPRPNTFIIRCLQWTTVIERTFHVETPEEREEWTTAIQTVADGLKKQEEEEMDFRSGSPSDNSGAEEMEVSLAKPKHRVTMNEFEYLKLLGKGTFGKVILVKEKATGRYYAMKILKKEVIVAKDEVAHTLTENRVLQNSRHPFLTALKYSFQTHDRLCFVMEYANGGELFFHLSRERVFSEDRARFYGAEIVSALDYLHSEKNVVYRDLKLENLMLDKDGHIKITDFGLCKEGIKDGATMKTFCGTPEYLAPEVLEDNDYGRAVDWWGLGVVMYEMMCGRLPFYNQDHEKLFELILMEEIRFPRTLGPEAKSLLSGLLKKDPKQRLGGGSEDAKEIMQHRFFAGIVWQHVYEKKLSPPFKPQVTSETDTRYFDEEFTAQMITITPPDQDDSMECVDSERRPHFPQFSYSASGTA

AKT1 E17K, sequence (P31749 whole entry E17K): as the sequence (P31749 whole entry) above, with E17K counted along it
AKT2, sequence (P31751 whole entry): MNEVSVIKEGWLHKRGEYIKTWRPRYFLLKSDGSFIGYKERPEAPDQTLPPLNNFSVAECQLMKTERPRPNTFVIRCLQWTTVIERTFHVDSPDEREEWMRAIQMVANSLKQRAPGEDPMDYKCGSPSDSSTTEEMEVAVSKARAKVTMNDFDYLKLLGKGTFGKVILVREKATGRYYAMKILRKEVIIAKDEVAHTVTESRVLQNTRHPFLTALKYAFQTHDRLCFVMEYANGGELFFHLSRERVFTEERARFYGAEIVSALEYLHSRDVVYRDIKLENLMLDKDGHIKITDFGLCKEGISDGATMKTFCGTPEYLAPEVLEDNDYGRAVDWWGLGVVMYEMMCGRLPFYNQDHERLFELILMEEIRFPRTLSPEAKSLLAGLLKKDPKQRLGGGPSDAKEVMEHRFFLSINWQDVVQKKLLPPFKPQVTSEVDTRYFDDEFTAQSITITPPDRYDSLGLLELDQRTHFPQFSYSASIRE

IC50 [1]	AKT1 E17K IC50: Selectivity vs AKT1 WT [2]	AKT1 E17K IC50: Selectivity vs AKT2 [2]	IC50 [2]	IC50 [3]	SMILES
100 to 500 nM	1.2	8.3	< 100 nM	< 100 nM	Nc1ncccc1-c1nc2ccc(-c3ccccc3)nc2n1-c1ccc(CNC(=O)Cc2ccc(C=O)c(O)c2Cl)cc1 [Compound 63, N-({4-[2-(2-aminopyridin-3-yl)-5-phenylimidazo[4,5-b]pyridin-3-yl]phenyl}methyl)-2-(2-chloro-4-formyl-3-hydroxyphenyl)acetamide]
100 to 500 nM	0.5	2	< 100 nM	< 100 nM	CN(Cc1ccc(-n2c(-c3cccnc3N)nc3ccc(-c4ccccc4)nc32)cc1)C(=O)Cc1ccc(C=O)c(O)c1 [Compound 64, N-(4-(2-(2-aminopyridin-3-yl)-5-phenyl-3H-imidazo[4,5-b]pyridin-3-yl)benzyl)-2-(4-formyl-3-hydroxyphenyl)-N-methylacetamide]
100 to 500 nM	1.2	37	< 100 nM	< 100 nM	Nc1ncccc1-c1nc2ccc(-c3ccccc3)nc2n1-c1ccc(CNC(=O)C(F)c2ccc(C=O)c(O)c2)cc1 (stereo not shown) [Compound 65, N-({4-[2-(2-aminopyridin-3-yl)-5-phenylimidazo[4,5-b]pyridin-3-yl]phenyl}methyl)-2-fluoro-2-(4-formyl-3-hydroxyphenyl)acetamide]
> 500 nM	3.5	830	< 100 nM	< 100 nM	Nc1ncccc1-c1nc2ccc(C3CC3)nc2n1-c1ccc(CNC(=O)Cc2ccc(C=O)c(O)c2)cc1 [Compound 66, N-({4-[2-(2-aminopyridin-3-yl)-5-cyclopropylimidazo[4,5-b]pyridin-3-yl]phenyl}methyl)-2-(4-formyl-3-hydroxyphenyl)acetamide]
> 500 nM	27	>240	< 100 nM	> 500 nM	Nc1ncccc1-c1nc2ccc(-c3cccnc3)nc2n1-c1ccc(CNC(=O)C2(c3ccc(C=O)c(O)c3F)CC2)cc1 [Compound 67, N-(4-(2-(2-aminopyridin-3-yl)-5-(pyridin-3-yl)-3H-imidazo[4,5-b]pyridin-3-yl)benzyl)-1-(2-fluoro-4-formyl-3-hydroxyphenyl)cyclopropane-1-carboxamide]
> 500 nM	4	150	< 100 nM	< 100 nM	Nc1ncccc1-c1nc2ccc(-c3cccnc3)nc2n1-c1ccc(CNC(=O)Cc2ccc(C=O)c(O)c2)cc1 [Compound 68, N-(4-(2-(2-aminopyridin-3-yl)-5-(pyridin-3-yl)-3H-imidazo[4,5-b]pyridin-3-yl)benzyl)-2-(4-formyl-3-hydroxyphenyl)acetamide]
> 500 nM	16	>160	< 100 nM	> 500 nM	Nc1ncccc1-c1nc2ccc(-c3ccccc3)nc2n1-c1ccc(CNC(=O)C2(c3ccc(C=O)c(O)c3)CC2)cc1 [Compound 69, N-({4-[2-(2-aminopyridin-3-yl)-5-phenylimidazo[4,5-b]pyridin-3-yl]phenyl}methyl)-1-(4-formyl-3-hydroxyphenyl)cyclopropane-1-carboxamide]
> 500 nM	7.7	65	< 100 nM	100 to 500 nM	Nc1ncccc1-c1nc2ccc(-c3cccnc3)nc2n1-c1ccc(CNC(=O)C2(c3ccc(C=O)c(O)c3)CC2)cc1 [Compound 70, N-({4-[2-(2-aminopyridin-3-yl)-5-(pyridin-3-yl)imidazo[4,5-b]pyridin-3-yl]phenyl}methyl)-1-(4-formyl-3-hydroxyphenyl)cyclopropane-1-carboxamide]

Second part, the molecule before the results:

SMILES	IC50 [1]	AKT1 E17K IC50: Selectivity vs AKT1 WT [2]	AKT1 E17K IC50: Selectivity vs AKT2 [2]	IC50 [2]	IC50 [3]
Nc1ncccc1-c1nc2cccnc2n1-c1ccc(CNC(=O)c2cc(C=O)c(O)cn2)cc1 [Compound 45, N-(4-(2-(2-aminopyridin-3-yl)-3H-imidazo[4,5-b]pyridin-3-yl)benzyl)-4-formyl-5-hydroxypicolinamide]	> 500 nM	2.7	>7.7	> 500 nM	> 500 nM
Nc1ncccc1-c1nc2cccnc2n1-c1ccc(CNC(=O)c2cnc(O)c(C=O)c2)cc1 [Compound 46, N-(4-(2-(2-aminopyridin-3-yl)-3H-imidazo[4,5-b]pyridin-3-yl)benzyl)-5-formyl-6-hydroxynicotinamide]	> 500 nM			> 500 nM	> 500 nM
Nc1ncccc1-c1nc2cccnc2n1-c1ccc(CNC(=O)c2ccc(O)c(C=O)n2)cc1 [Compound 47, N-(4-(2-(2-aminopyridin-3-yl)-3H-imidazo[4,5-b]pyridin-3-yl)benzyl)-6-formyl-5-hydroxypicolinamide]	> 500 nM	1.8	3.7	> 500 nM	> 500 nM
Nc1ncccc1-c1nc2cccnc2n1-c1ccc(CNC(=O)Cc2ccc(C=O)c(NC(=O)C3CC3)c2)cc1 [Compound 48, N-(5-(2-((4-(2-(2-aminopyridin-3-yl)-3H-imidazo[4,5-b]pyridin-3-yl)benzyl)amino)-2-oxoethyl)-2-formylphenyl)cyclopropanecarboxamide]	> 500 nM	8.5	120	< 100 nM	100 to 500 nM
Nc1ncccc1-c1nc2ccc(-c3ccccc3)nc2n1-c1ccc(CNC(=O)c2cc(Br)c(O)c(C=O)c2)cc1 [Compound 50, N-({4-[2-(2-aminopyridin-3-yl)-5-phenylimidazo[4,5-b]pyridin-3-yl]phenyl}methyl)-3-bromo-5-formyl-4-hydroxybenzamide]	100 to 500 nM	2.1	32	< 100 nM	< 100 nM
CC(C)(O)C#Cc1ccc2nc(-c3cccnc3N)n(-c3ccc(CNC(=O)Cc4ccc(C=O)c(O)c4)cc3)c2n1 [Compound 51, N-(4-(2-(2-aminopyridin-3-yl)-5-(3-hydroxy-3-methylbut-1-yn-1-yl)-3H-imidazo[4,5-b]pyridin-3-yl)benzyl)-2-(4-formyl-3-hydroxyphenyl)acetamide]	> 500 nM	3.8	90	< 100 nM	100 to 500 nM
Nc1ncccc1-c1nc2ccc(-c3ccccc3F)nc2n1-c1ccc(CNC(=O)Cc2ccc(C=O)c(O)c2)cc1 [Compound 54, N-({4-[2-(2-aminopyridin-3-yl)-5-(2-fluorophenyl)imidazo[4,5-b]pyridin-3-yl]phenyl}methyl)-2-(4-formyl-3-hydroxyphenyl)acetamide]	100 to 500 nM	1.8	64	< 100 nM	< 100 nM
Nc1ncccc1-c1nc2ccc(-c3cccc(N4CCOCC4)c3)nc2n1-c1ccc(CNC(=O)Cc2ccc(C=O)c(O)c2)cc1 [Compound 55, N-({4-[2-(2-aminopyridin-3-yl)-5-[3-(morpholin-4-yl)phenyl]imidazo[4,5-b]pyridin-3-yl]phenyl}methyl)-2-(4-formyl-3-hydroxyphenyl)acetamide]	< 100 nM	0.93	6.8	< 100 nM	< 100 nM
CN(CCc1ccc(C=O)c(O)c1)C(=O)c1ccc(-n2c(-c3cccnc3N)nc3ccc(-c4ccccc4)nc32)cc1 [Compound 57, 4-[2-(2-aminopyridin-3-yl)-5-phenylimidazo[4,5-b]pyridin-3-yl]-N-[2-(4-formyl-3-hydroxyphenyl)ethyl]-N-methylbenzamide]	> 500 nM	2.7	13	100 to 500 nM	100 to 500 nM
Nc1ncccc1-c1nc2ccc(-c3ccccc3)nc2n1-c1ccc(CNC(=O)C2(c3ccc(C=O)c(O)c3F)CC2)cc1 [Compound 59, N-(4-(2-(2-aminopyridin-3-yl)-5-phenyl-3H-imidazo[4,5-b]pyridin-3-yl)benzyl)-1-(2-fluoro-4-formyl-3-hydroxyphenyl)cyclopropane-1-carboxamide]	> 500 nM	5.7	39	100 to 500 nM	> 500 nM
CC(C)(C(=O)NCc1ccc(-n2c(-c3cccnc3N)nc3ccc(-c4ccccc4)nc32)cc1)c1ccc(C=O)c(O)c1 [Compound 60, N-({4-[2-(2-aminopyridin-3-yl)-5-phenylimidazo[4,5-b]pyridin-3-yl]phenyl}methyl)-2-(4-formyl-3-hydroxyphenyl)-2-methylpropanamide]	> 500 nM	8.2	45	< 100 nM	100 to 500 nM
Nc1ncccc1-c1nc2ccc(-c3ccncc3)nc2n1-c1ccc(CNC(=O)Cc2ccc(C=O)c(O)c2)cc1 [Compound 61, N-({4-[2-(2-aminopyridin-3-yl)-5-(pyridin-4-yl)imidazo[4,5-b]pyridin-3-yl]phenyl}methyl)-2-(4-formyl-3-hydroxyphenyl)acetamide]	> 500 nM	3	66	< 100 nM	< 100 nM
Nc1ncccc1-c1nc2ccc(-c3ccccn3)nc2n1-c1ccc(CNC(=O)Cc2ccc(C=O)c(O)c2)cc1 [Compound 62, N-({4-[2-(2-aminopyridin-3-yl)-5-(pyridin-2-yl)imidazo[4,5-b]pyridin-3-yl]phenyl}methyl)-2-(4-formyl-3-hydroxyphenyl)acetamide]	> 500 nM	2.7	47	< 100 nM	< 100 nM

Reference: patent publication US20250115600A1, “COVALENT MODIFIERS OF AKT1 AND USES THEREOF” (Terremoto Biosciences, Inc., priority 2022, published 2025)
